# Reference: US5567716A, “Trans and cis traumatic acid salts having cicatrizant activity associated to bacteriostatic, antiviral, antibiotic or antifungal activity” (priority 1992, dated 1996)
# Assays:
# 3T3 fibroblasts = experiment: Cellular proliferation of 3T3 fibroblasts, neutral red colorimetry (1.1a); assay type: cell-based, Mice
# Procedure: Experiments on 3T3 fibroblasts
# Mice 3T3 fibroblasts cultures sown at a 40.000/ml concentration on plates having 6 wells in a DMEM culture medium enriched with 10% calf serum are used. After 24 hours culture, the 90 prepared wells are divided in order to allow the analyses of the compounds of the invention, every compound to be tested being used respectively at a concentration of 0.1, 1 and 10 μg/ml by subsequent evaluations after 48 and 72 hours of incubation.
# Hexadecyltrimethylammoniun (ETA) traumatare: solubilized in water and brought to the desired final concentrations of 0.1. 1 and 10 μg/ml by progressive dilutions;
# Ethanolamine traumatate: solubilized in water and brought to the final concentrations of 0.1, 1 and 10 μg/ml by progressive dilutions;
# Traumatic acid: neutralized with sodium hydroxyde and solubilized in water, then brought to the final concentrations of 0.1, 1 and 10 μg/ml by progressive dilutions with the culture medium.
# The compounds are added to the cells after 24 hours culture. The cells number is measured by colorimetry with the neutral red intravital stain after 24, 48, 72 hours of incubation.
# Balb/C 3T3 fibroblasts = experiment: Cell growth of Balb/C 3T3 fibroblasts, crystal violet colorimetry (1.1b); assay type: cell-based, Mouse; conditions: for cell growth t2/t1: 48 h/24 h, control 76.776
# Procedure: Mouse Balb/C 3T3 fibroblasts were grown in DMEM medium supplemented with penicillin (100 units/ml) and streptomycin (0.1 mg/ml). For experimental purposes, cells are routinely inoculated in […] diameter culture dishes (5000cells/dish) and cultured overnight.
# The compounds to be tested are solubilized in DMEM+10%FCS and DMSO to obtain the final concentration of 10^-5 M, 10^-6 M e 10^-7 M in 0.05% DMSO.
# The cells number is measured 4, 24 and 48 hours after seeding. The cell growth is evaluated as t2/t1 ratio (%).
# [1] = test system: psoriatic patients or patients affected by acne, dermatitis seborrheic, neurodermatitis and itches; conditions: trachoma, herpetic keratitis, verruca; cited from earlier work
# experimental animal = conditions: topical route; cited from earlier work
# man = conditions: burns therapy; cited from earlier work
# herpetic keratitis = conditions: topic and systemic administration; cited from earlier work
compound,measurement,setting,value
"O=C(O)/C=C/CCCCCCCCC(=O)O [traumatic acid, 10-dodecendioic]",effect on cells proliferation,"3T3 fibroblasts; 0.1 μg/ml, in words",able to affect cells proliferation according to a not statistically significant trend
same,effect on cellular proliferation,"3T3 fibroblasts; 1 μg/ml, in words, ETA salt > ethanolamine salt = traumatic acid",able to increase cellular proliferation
same,"cells numeration (colorimetric, neutral red)","3T3 fibroblasts; 24 hours of incubation, 0.1 (head: μg/ml), control 0.579 ± 0.021",0.486 ± 0.029
same,"cells numeration (colorimetric, neutral red)","3T3 fibroblasts; 24 hours of incubation, 1.0 (head: μg/ml), control 0.579 ± 0.021",0.510 ± 0.008
same,"cells numeration (colorimetric, neutral red)","3T3 fibroblasts; 24 hours of incubation, 10.0 (head: μg/ml), control 0.579 ± 0.021",0.543 ± 0.019
same,"cells numeration (colorimetric, neutral red)","3T3 fibroblasts; 48 hours of incubation, 0.1 (head: μg/ml), control 1.334 ± 0.050",1.497 ± 0.087
same,"cells numeration (colorimetric, neutral red)","3T3 fibroblasts; 48 hours of incubation, 1.0 (head: μg/ml), control 1.334 ± 0.050",1.431 ± 0.047
same,"cells numeration (colorimetric, neutral red)","3T3 fibroblasts; 48 hours of incubation, 10.0 (head: μg/ml), control 1.334 ± 0.050, ** p < 0.01 significant reduction",1.442 ± 0.060
same,"cells numeration (colorimetric, neutral red)","3T3 fibroblasts; 72 hours of incubation, 0.1 (head: μg/ml), control 2.360 ± 0.125",2.492 ± 0.070
same,"cells numeration (colorimetric, neutral red)","3T3 fibroblasts; 72 hours of incubation, 1.0 (head: μg/ml), control 2.360 ± 0.125",2.349 ± 0.125
same,"cells numeration (colorimetric, neutral red)","3T3 fibroblasts; 72 hours of incubation, 10.0 (head: μg/ml), control 2.360 ± 0.125, ** p < 0.01 significant reduction",2.446 ± 0.128
same,time necessary for the cells to reach the confluence,"3T3 fibroblasts; side control experiment, ETA and ethanolamine salts > traumatic acid",reduce the time normally necessary for the cells to reach the confluence
same,Cell density,"Balb/C 3T3 fibroblasts; 4 h (t0), 10^-5M, control 0.300",0.478
same,Cell density,"Balb/C 3T3 fibroblasts; 4 h (t0), 10^-6M, control 0.300",0.495
same,Cell density,"Balb/C 3T3 fibroblasts; 4 h (t0), 10^-7M, control 0.300",0.459
same,Cell density,"Balb/C 3T3 fibroblasts; 24 h (t1), 10^-5M, control 0.481",0.317
same,Cell density,"Balb/C 3T3 fibroblasts; 24 h (t1), 10^-6M, control 0.481",0.320
same,Cell density,"Balb/C 3T3 fibroblasts; 24 h (t1), 10^-7M, control 0.481",0.323
same,Cell density,"Balb/C 3T3 fibroblasts; 48 h (t2), 10^-5M, control 0.849",0.657
same,Cell density,"Balb/C 3T3 fibroblasts; 48 h (t2), 10^-6M, control 0.849",0.657
same,Cell density,"Balb/C 3T3 fibroblasts; 48 h (t2), 10^-7M, control 0.849",0.740
same,cell growth t2/t1,Balb/C 3T3 fibroblasts; 10^-5M,112.273%
same,cell growth t2/t1,Balb/C 3T3 fibroblasts; 10^-6M,95.638%
same,cell growth t2/t1,Balb/C 3T3 fibroblasts; 10^-7M,135.554%
same,clinical results,[1],Positive clinical results
same,reepithelializing and antiirritant action,experimental animal,reepithelializing and antiirritant action
same,reepithelialization times,man,reduces the reepithelialization times
same,effect on herpetic keratitis model,herpetic keratitis,effectiveness on an in vivo herpetic keratitis model both after topic and systemic administration
